# From patent US6566359B1, “2,4,6-trimethyl-1,4-dihydro-pyridine-3,5-dicarboxylic acid esters as neuroprotective drugs” (Board of Supervisors of Louisiana State University and …, priority 2002, dated 2003)
# Structures can show the parent of a compound that is named as a salt.
# Assays:
# [1] = tested on: c-jun aminoterminal protein kinase (JNK); assay: PAF-mediated JNK activation in HEK-293 cells, immunocomplex kinase assay; assay type: cell-based, human; conditions: PAF 100 nM
# Protocol: Experimental Protocol: HEK-293 cells (transformed primary human embryo kidney cells, ATCC# CRL-1573) were cultured to confluency in DMEM-10% FBS high-glucose medium (GIBCO-BRL, Rockville, Md). Cells were cultured in 6-well plates and were treated with PAF (100 nM) for 60 min or interleukin-1β (“IL-1β”; 10 ng/ml) for 30 min, and then frozen for later assays for JNK and ERK as described below. To test the effect of compounds of the LAU-0900 series, HEK-293 cells were treated for 30 min with various concentrations (from 10 nM to 1 μM) of the experimental LAU-0900 series compound before the addition of PAF or IL-1β. […]
# To measure the JNK activity, aliquots of 5 μg immunoprecipitates were incubated for 30 min at 30° C. using 10 μg GST-cJUN (Santa Cruz Biotechnology, Santa Cruz, Calif.) as substrate. […] The filter papers were washed twice with 10 mL per square 1% phosphoric acid, followed by one wash with water. ^32P on the filter paper was counted in a scintillation counter to quantify the phosphorylation of substrate proteins.
# [2] = Middle cerebral artery occlusion (MCA-O) stroke model, infarct volume by TTC; assay type: in vivo, C57BL/6 mice
# [3] = tested on: human COX-2 promoter; assay: PAF-induced COX-2 promoter-luciferase transcription in CV-1 cells; assay type: cell-based; conditions: 100 nM compound, 100 nM PAF
# Protocol: (§1) To test the ability of LAU-0900 series compounds to inhibit COX-2 expression, a kidney cell line was transiently transfected with the 830-base-pair human COX-2 promoter construct (proximal to the transcription start site) fused to the luciferase gene as a reporter as described below.
# (§2) Transfection of CV-1 cells with human COX-2promoterfused with LUC: C V-1 Cells (African green monkey kidney cell line, ATCC # CCL-17) were grown in DMEM-F12 (GIBCO-BRL, Rockville, Md.) supplemented with 10% FBS (fetal bovine serum) in 6-well plates. At 80% confluence, the cells were transfected with 10 μg human COX-2 promoter-LUC construct (containing 830 base pairs of the human COX-2 promoter (donated by Dr. Stephen Prescot, Huntsman Cancer Institute, Salt Lake City, Utah) using a liposomal transfection reagent (DOTAP, Roche Diagnostics, Gmbh, Mannheim, Germany). Promoterless β-galactosidase construct (Promega, Madison, Wis.) was co-transfected to assess transfection efficiency. Three hours after transfection at 37° C., the medium was removed, and the cells were washed with phonsphate-buffered saline solution, pH 7.2 (PBS; Gibco-BRL, Rockville Md. The plates were further incubated at 37° C. in complete medium DMEM-F12 with 10% FBS for about 8-10 hr. Before the addition of the inducers of COX-2, PAF (100 nM) or IL-1β (10 ng/ml), the CV-1-transfected cells were serum-starved for 8 hr at 37° C. After the addition of the inducers, the cells were incubated for 8-10 hr at 37° C. Then the medium was removed, the cells were washed with PBS, harvested, and frozen at −80° C. until used for assays.
# (§3) To test the effectiveness of the LAU-0900 series compounds, the transfected cells were treated for 1 hr with 100 nM of various LAU-0900 series compounds before the addition of the inducers (either PAF or IL-1β, and the LAU-0900 compound remained in the medium throughout the incubation period.
# (§4) Luciferase assay of transfected CV-1 cells: Frozen cells were homogenized in 300 μl luciferase assay buffer (“ALL”, Analytical Luminescence Laboratory, San Diego, Calif.), and cellular debris was collected as a pellet by centrifugation at 2800×g for 20 min at 4° C. Supernatants (20-30 μl) were normalized to 1 μg/ml of total protein content, and were mixed with 70-80 μl ALL buffer. Reactions were initiated by injection of 100 μl of 1 mM luciferin (Sigma Chemical Co., St. Louis, Mo.). The relative light units were determined by using an ALL luminometer that recorded over 20-second intervals.
# [4] = tested on: human COX-2 promoter; assay: IL-1β-induced COX-2 promoter-luciferase transcription in CV-1 cells; assay type: cell-based; conditions: 100 nM compound, 10 nM IL-1β
# Protocol: as §1, §2, §3, §4
# [5] = tested on: ARPE-19 cells; assay: Oxidative stress-induced cell death (TNF + H2O2), Hoechst staining; assay type: cell-based, human; conditions: TNF 10 ng/ml + H2O2 1.6 μM
# Protocol: To test the effectiveness of the LAU-0900 series compounds as inhibitors of oxidative stress-induced cell death, human retinal pigment epithelial cells in culture (ARPE-19 cells, ATCC #CRL-2302) were used. ARPE-19 cells were cultured to confluence in DMEM-10% FBS medium (Gibco-BRL). The cells were then divided into 11 groups. Nine groups were exposed overnight to […] of a test compound selected from LAU-0901, LAU-0903, LAU-0904, LAU-0905, LAU-0906, LAU-0907, LAU-0908, LAU-0909, and LAU-0910. The other two groups were control groups, and were not exposed to any test chemical. In the nine groups and in one control group, oxidative stress was triggered by the addition of a combination of tumor necrosis factor (“TNF”; 10 ng/ml) and hydrogen peroxide (“H2O2”; 1.6 μM). The second control group was not treated with TNF and H2O2.
# The amount of Hoeschst staining was least in the group treated with LAU-0901, and most in the group treated with LAU-0910.
# [6] = target: intracellular type PAF receptor (rat brain microsomal preparations) (Rattus norvegicus, UniProt P46002); assay: Competition for 3H-PAF binding to rat brain cortex microsomal membranes; conditions: rat brain microsomal
# Protocol: (§5) Binding studies were performed on subcellular fractions of tissues obtained from rat brain cortex, according to procedures described in V. Marcheselli et al., “Distinct platelet-activating factor binding sites in synaptic endings and in intracellular membranes of rat cerebral cortex,” J. biol. Chem., vol. 265, pp. 9140-9145 (1990). Freshly dissected brain tissues were homogenized in ice-cold buffer (50 mM Tris-HCl, 2 mM EGTA, 5 mM PMSF, 250 mM sucrose, 7.4 pH). Subcellular fractions were obtained by differential centrifugation. The microsomal fraction was sedimented after 100,000×g for 1 hour centrifugation. In addition, three cell lines from Chinese hamster ovary (CHO) with varying expression of PAF receptors, CHO-A, CHO-B, and CHO-C cells (from Dr. Takao Shiizu, University of Tokyo, Tokyo, Japan) were cultured to the fourth-passage cells. These cells were cultured to confluence, then detached from their culturing flasks, and pelleted by rapid centrifugation (3,000 rpm, 10 min). Cellular pellets were homogenized in ice-cold buffer as described above. Freshly obtained microsomal fractions or CHO cellular homogenates were utilized for saturation, displacement, and competition studies using ^3H-PAF as the hot ligand, unlabeled-PAF to detect non-specific binding, and a LAU-0900 series compound to displace by competition ^3H-PAF bound to a receptor.
# [7] = target: T1, cell-surface-type PAF receptor over-expressed in CHO-B cells (Cavia porcellus, UniProt P21556); assay: Competition for 3H-PAF binding to CHO-B cell homogenates; conditions: CHO-B homogenates
# T1 construct: expressed in transfected cells; host or cells: Chinese hamster ovary cells: CHO-B (high expression) and CHO-A (mild expression), used as cell homogenates
# Protocol: as §5
# (§6) See B. Liu et al., “Implication of protein kinase C alpha in PAF-stimulated phospholipase D Activation in Chinese hamster ovary (CHO) cells expressing PAF receptor,” Biochem. Biophys. Res. Commun., vol.214, pp.418-423 (1995). […] Both the constants of inhibition (KI) and 50% of inhibitory activity (IC50) were significant at a low concentration of LAU-0903.
# [8] = tested on: CHO-C cells (do not exp PAF-R); assay: Competition for 3H-PAF binding to CHO-C cell homogenates; conditions: CHO-C homogenates
# Protocol: as §5, §6
# [9] = known LD50; cited from earlier work
# [10] = 30 mg/kg 1 hr after reperfusion following 1 hr of MCA-O
# T1 sequence (P21556 whole entry): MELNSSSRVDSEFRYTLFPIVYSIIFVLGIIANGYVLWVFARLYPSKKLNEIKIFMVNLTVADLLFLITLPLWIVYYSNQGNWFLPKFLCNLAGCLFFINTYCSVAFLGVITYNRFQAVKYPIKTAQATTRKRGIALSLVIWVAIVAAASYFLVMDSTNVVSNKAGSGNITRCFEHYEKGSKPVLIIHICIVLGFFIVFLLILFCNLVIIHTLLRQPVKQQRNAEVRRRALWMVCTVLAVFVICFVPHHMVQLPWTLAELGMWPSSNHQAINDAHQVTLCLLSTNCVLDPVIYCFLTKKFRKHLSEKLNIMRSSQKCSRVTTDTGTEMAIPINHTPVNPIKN
# Chain of intracellular type PAF receptor (rat brain microsomal preparations) (P46002 whole entry): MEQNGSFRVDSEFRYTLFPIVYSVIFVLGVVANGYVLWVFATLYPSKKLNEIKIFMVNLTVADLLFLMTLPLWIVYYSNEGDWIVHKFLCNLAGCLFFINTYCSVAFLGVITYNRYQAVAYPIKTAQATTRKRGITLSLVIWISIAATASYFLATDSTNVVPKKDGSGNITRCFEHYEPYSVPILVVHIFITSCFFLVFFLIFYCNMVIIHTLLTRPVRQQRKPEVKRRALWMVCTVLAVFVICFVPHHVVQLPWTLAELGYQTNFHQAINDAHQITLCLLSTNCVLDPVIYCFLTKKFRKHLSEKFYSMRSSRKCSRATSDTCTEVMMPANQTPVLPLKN
smiles,measurement,setting,value
"CC1=C(C(=O)OCCOc2ccc(Cl)c(Cl)c2)C(C)C(C(=O)OC(CN2CCOCC2)CN2CCOCC2)=C(C)N1 (centres unmarked) [LAU-0901, 2,4,6-Trimethyl-1,4-dihydro-pyridine-3,5-dicarboxylic acid 5-[2-(3,4-dichlorophenoxy)]ethyl ester 3-[1,3-di-(4-morpholinyl)-2-propyl-1-esterdihydrochloride]",Lowest concentration inhibiting PAF-induced JNK,[1],≤ 10 nM
same,Reduction of infarcted volume,[2]; [10],40%
same,Reduction of infarcted volume,"[2]; 30 mg/kg at the onset of MCA-O, 1 hr MCA-O, killed 24 hr later",40%
same,Reduction of infarcted volume,"[2]; 30 mg/kg intraperitoneally 1 h before MCA-O, 1 hr MCA-O, killed 24 hr after",55%
"COC(=O)C1=C(C)NC(C)=C(C(=O)OCCCSc2ccc(F)cc2)C1C (centres unmarked) [LAU-0904, 2,4,6-Trimethyl-1,4-dihydro-pyridine-3,5-dicarboxylic acid 5-[3-(4-fluorophenysulfanyl)]-propyl-1-ester 3-methyl ester]",Reduction of infarcted volume,[2]; [10],40%
"CCCOc1ccc(SCCCOC(=O)C2=C(C)NC(C)=C(C(=O)OC)C2C)cc1 (centres unmarked) [LAU-0907, 2,4,6-Trimethyl-1,4-dihydro-pyridine-3,5-dicarboxylic acid 5-[3-(4-propoxyphenylsulfanyl)]-propyl-1-ester 3-methyl ester]",Inhibition of COX-2 transcription induced by PAF,[3],inhibited
same,Inhibition of COX-2 transcription induced by IL-1β,[4],inhibited
COC(=O)C1=C(C)NC(C)=C(C(=O)OCCCOc2ccc(/C=C/C(C)=O)cc2)C1C (centres unmarked) [LAU-0908],Inhibition of COX-2 transcription induced by PAF,[3],inhibited
same,Inhibition of COX-2 transcription induced by IL-1β,[4],inhibited
"CCCCOc1ccc(OCCCOC(=O)C2=C(C)NC(C)=C(C(=O)OC)C2C)cc1 (centres unmarked) [LAU-0910, 2,4,6-Trimethyl-1,4-dihydropyridine-3,5-dicarboxylic acid 3-[3-(4-butoxyphenoxy)propyl]ester 5-methyl ester]",Amount of Hoechst staining (cytoprotection),[5],most
"CCCC(=O)c1ccc(OCCCOC(=O)C2=C(C)NC(C)=C(C(=O)OC)C2C)cc1 (centres unmarked) [LAU-0913, 2,4,6-Trimethyl-1,4-dihydro-pyridine-3,5-dicarboxylic acid 5-[3-(4-butyryl-phenoxy)-propyl]1-ester 3-methyl ester]",Inhibition of COX-2 transcription induced by PAF,[3],inhibited
same,Inhibition of COX-2 transcription induced by IL-1β,[4],inhibited
"CCCCCCCCCCCCCCCCOC[C@H](COP(=O)([O-])OCC[N+](C)(C)C)OC(C)=O [^3H-PAF, ^3H-platelet-activating factor, reference compound]",Kd,[6]; high-affinity binding site (H),0.00205 nM
same,Kd,[6]; low-affinity binding site (L),30 nM
same,Kd,[7],0.15 nM
same,Kd 3H-PAF,[8],No binding
CC(=O)Nc1ccc(O)cc1 [acetaminophen],LD50,[9],560 mg/kg
